Assay results reported in patent US20240252527A9, “NUCLEOSIDE DRUGS FOR THE TREATMENT OR PREVENTION OF CORONAVIRUS INFECTION AND THEIR USES” (Miracure Biotechnology Limited, priority 2022, published 2024).
Read-outs that look alike come from different tables or passages of the source.

Experiments:
[1] = tested on: OC43; assay: OC43 Huh7 CPE assay (cytopathic experiment); type: cell-based, coronavirus OC43 (HCoV-OC43); conditions: for EC50: read-out: OC43 Huh7 CPE assay (μM) EC50; for EC90: read-out: OC43 Huh7 CPE assay (μM) EC90
Method: (§1) Cells were seeded into microplates at a certain density and cultured overnight in a incubator at 5% CO2, 37° C. The next day, double-diluted compound and virus were added. It was set up a cell control group (cells without treatment with a compound or virus infection), a virus control group (cells infected with virus, no compound treatment) and a culture medium control group (medium only). Cells were cultured in the incubator for 3 days (229E) or 7 days (OC43). Cytotoxicity experiments were performed under the same conditions as antiviral experiments, but without virus infection. Cell viability was tested using a cell viability assay kit Cell Titer Glo (Promega).
(§2) The antiviral activity and cytotoxicity of the compounds were expressed by the inhibition rate (%) and cell viability (%) of the compounds against virus-induced cytopathic effects at different concentrations, respectively. Nonlinear fitting analysis on the inhibition rate and cell viability of the compounds were carried out with the GraphPad Prism, and the half effective concentration (EC50), the […] effective concentration (EC90), the half cytotoxic concentration (CC50) and the 90% cytotoxic concentration of the compound […] values were calculated.

[2] = tested on: 229E; assay: 229E MRC5 CPE assay (cytopathic experiment); type: cell-based, coronavirus 229E (HCoV-229E)
Method: as §1, §2

[3] = Betacoronavirus 1, OC43, Huh-7, 168 h
[4] = Human coronavirus 229E, MRC5, 72 h, read-out: 229E MRC5 CPE assay (μM) EC50
[5] = Human coronavirus 229E, MRC5, 72 h, read-out: 229E MRC5 CPE assay (μM) EC90
[6] = Human coronavirus 229E, MRC5, 72 h; read-out: 229E MRC5 CPE assay (μM) EC50
[7] = Human coronavirus 229E, MRC5, 72 h; read-out: 229E MRC5 CPE assay (μM) EC90
[8] = Betacoronavirus 1, Huh-7, 168 h, Huh7 cells, OC43 virus, 7 days, Cell Titer Glo

Structure (SMILES) | EC50 [1, 3] [µM] | EC90 [1, 3] [µM] | EC50 [2, 4] [µM] | EC90 [2, 5] [µM] | EC50 [2, 6] [µM] | EC90 [2, 7] [µM] | EC50 [1, 8] [µM] | EC90 [1, 8] [µM]
CCCC(CCC)C(=O)OCO[P@](=O)(N[C@@H](C)C(=O)OCC(CC)CC)OC[C@H]1O[C@@](C#N)(c2ccc3c(N)ncnn23)[C@H](O)[C@@H]1O [Compound 070] | 0.1 to 0.5 | > 0.5 | 0.1 to 0.5 | 0.1 to 0.5 |  |  |  | 
CC(C)(C)C(=O)OCO[P@@](=O)(OC[C@H]1O[C@@](C#N)(c2ccc3c(N)ncnn23)[C@H](O)[C@@H]1O)Oc1ccccc1 [Compound 214] | > 0.5 | > 0.5 |  |  | > 0.5 | > 0.5 |  | 
CCC(CC)COC(=O)[C@H](C)N[P@](=O)(OC[C@H]1O[C@@](C#N)(c2ccc3c(N)ncnn23)[C@H](O)[C@@H]1O)Oc1ccc(C[C@H](NC(=O)OCc2ccccc2)C(=O)OC2CCCC2)cc1 [Compound 219] |  |  |  |  | > 0.5 | > 0.5 | > 0.5 | > 0.5
CCCC(CCC)C(=O)OCO[P@]1(=S)OC[C@H]2O[C@@](C#N)(c3ccc4c(N)ncnn34)[C@H](O)[C@@H]2O1 [Compound 143] | > 0.5 | > 0.5 |  |  | > 0.5 | > 0.5 |  | 
CCCC(CCC)C(=O)OCO[P@](=O)(OC[C@H]1O[C@@](C#N)(c2ccc3c(N)ncnn23)[C@H](O)[C@@H]1O)Oc1ccccc1 [Compound 223] | > 0.5 | > 0.5 |  |  | 0.1 to 0.5 | > 0.5 |  | 
CCCC(CCC)C(=O)OCO[P@](=O)(OC[C@H]1O[C@@](C#N)(c2ccc3c(N)ncnn23)[C@H](O)[C@@H]1O)Oc1ccc(C[C@H](NC(=O)OCc2ccccc2)C(=O)OC2CCCC2)cc1 [Compound 226] | > 0.5 | > 0.5 |  |  | > 0.5 | > 0.5 |  | 
CCCC(CCC)C(=O)OCO[P@@](=O)(OC[C@H]1O[C@@](C#N)(c2ccc3c(N)ncnn23)[C@H](O)[C@@H]1O)Oc1ccccc1 [Compound 222] | > 0.5 | > 0.5 |  |  | 0.1 to 0.5 | > 0.5 |  | 
[2H]c1cc([C@]2(C#N)O[C@@H]3CO[P@@](=O)(OCCSC(=O)C(C)(C)C)O[C@H]3[C@H]2O)n2ncnc(N)c12 [Compound 239] | < 0.1 | 0.1 to 0.5 | < 0.1 | < 0.1 |  |  |  | 
CCC(CC)COC(=O)[C@H](C)N[P@@](=O)(OCOC(=O)c1cccnc1)OC[C@H]1O[C@@](C#N)(c2ccc3c(N)ncnn23)[C@H](O)[C@@H]1O [Compound 174] | > 0.5 | > 0.5 | > 0.5 | > 0.5 |  |  |  | 
CCCC(CCC)C(=O)OCO[P@@](=O)(OC[C@H]1O[C@@](C#N)(c2ccc3c(N)ncnn23)[C@H](O)[C@@H]1O)Oc1ccc(C[C@H](NC(=O)OCc2ccccc2)C(=O)OC2CCCC2)cc1 [Compound 227] | > 0.5 | > 0.5 |  |  | > 0.5 | > 0.5 |  | 
CCCC(CCC)C(=O)OC(C)O[P@]1(=O)OC[C@H]2O[C@@](C#N)(c3ccc4c(N)ncnn34)[C@H](O)[C@@H]2O1 (stereo partly drawn) [Compound 141] | > 0.5 | > 0.5 | > 0.5 | > 0.5 |  |  |  | 
N#C[C@@]1(c2ccc3c(N)ncnn23)O[C@H](COP(=O)(OCOC(=O)OC2CCCC2)OCOC(=O)OC2CCCC2)[C@@H](O)[C@H]1O [Compound 277] |  |  | < 0.1 | 0.1 to 0.5 |  |  |  | 
CCC(CC)COC(=O)[C@H](C)N[P@@](=O)(OCOC(=O)C(C)(C)C)OC[C@H]1O[C@@](C#N)(c2ccc3c(N)ncnn23)[C@H](O)[C@@H]1O [Compound 192] | 0.1 to 0.5 | > 0.5 | 0.1 to 0.5 | > 0.5 |  |  |  | 
[2H]c1cc([C@]2(C#N)O[C@@H]3CO[P@@](=O)(OCOC(=O)C(CCC)CCC)O[C@H]3[C@H]2O)n2ncnc(N)c12 [Compound 211] | 0.1 to 0.5 | > 0.5 | < 0.1 | < 0.1 |  |  |  | 
CC(C)(C)C(=O)O[C@@H]1[C@@H]2O[P@@](=O)(O)OC[C@H]2O[C@@]1(C#N)c1ccc2c(N)ncnn12 [Compound 199] | > 0.5 | > 0.5 | > 0.5 | > 0.5 |  |  |  | 
CCC(CC)COC(=O)[C@H](C)NP(=O)(OC[C@H]1O[C@@](C#N)(c2ccc3c(N)ncnn23)[C@H](O)[C@@H]1O)ONC(=N)c1ccccc1 (stereo partly drawn) [Compound 028] | > 0.5 | > 0.5 | > 0.5 | > 0.5 |  |  |  | 
CCO[P@]1(=O)OC[C@H]2O[C@@](C#N)(c3ccc4c(N)ncnn34)[C@H](O)[C@@H]2O1 [Compound 231] |  |  |  |  | > 0.5 | > 0.5 | > 0.5 | > 0.5
